Melting point and inhibition data for 4 molecules are collected here from patent US7728028B2, “Substituted imidazoline compounds” (Gruenenthal GmbH, priority 2005, dated 2010).

For one data set, the target named is T1, human μ-opiate receptor (Homo sapiens, UniProt P35372).
T1 construct: purchased PerkinElmer Life Sciences, Zaventem, Belgium RB-HOM; host or cells: CHO-K1 cells (recombinant expression; membrane preparation)
Kind of data set: Affinity for the human μ-opiate receptor ([3H]-naloxone displacement, SPA). To be noted: Table 2, Examples 11-161; test substance 1 μmole/l; inhibition of specific [3H]-naloxone binding; CHO-K1 membranes; read-out: μ-Opioid receptor, % inhibition [1 μM]. The method in brief: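 CHO-K1 membranes expressing the receptor, incubated 90 min at room temperature with 1 nmol/l [3H]-naloxone and WGA-SPA beads in 50 mmol/l Tris-HCl with 0.06% BSA. Non-specific binding defined with 100 μmol/l naloxone. Value is % inhibition of specific binding at 1 μmol/l test substance.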

T1 sequence (P35372 whole entry): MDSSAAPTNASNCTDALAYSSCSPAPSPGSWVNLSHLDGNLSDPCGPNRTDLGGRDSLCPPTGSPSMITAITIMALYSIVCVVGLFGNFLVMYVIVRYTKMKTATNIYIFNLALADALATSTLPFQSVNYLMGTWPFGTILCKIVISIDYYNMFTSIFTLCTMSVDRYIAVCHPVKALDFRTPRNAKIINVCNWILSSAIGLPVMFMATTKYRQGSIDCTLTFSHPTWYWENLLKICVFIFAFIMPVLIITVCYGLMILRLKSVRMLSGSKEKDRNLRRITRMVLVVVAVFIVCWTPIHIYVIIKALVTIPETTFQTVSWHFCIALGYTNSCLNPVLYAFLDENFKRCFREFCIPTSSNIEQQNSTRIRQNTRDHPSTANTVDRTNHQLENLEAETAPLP

In turn, `CN(C)C(c1cccc(F)c1)C1CCC(C=O)CC1` (stereo not shown) registered a melting point of 40 to 43 °C.

`CCCN1C=NC(CCC(=O)OC)(C(=O)OC)C1CC1CCC(C(c2ccc(F)cc2)N(C)C)CC1` (stereo not shown) [Example 159, 5-{4-[dimethylamino-(4-fluorophenyl)-methyl]-cyclohexylmethyl}-4-(2-methoxycarbonylethyl)-1-propyl-4,5-dihydro-1H-imidazole-4-carboxylic acid methyl ester]: the inhibition at 1 µM at human μ-opiate receptor came to 79%. For the molecule `CCCN1C=NC(CSC)(C(=O)OC)C1CC1CCC(C(c2ccc(F)cc2)N(C)C)CC1` (stereo not shown) [Example 160, 5-{4-[dimethylamino-(4-fluorophenyl)-methyl]-cyclohexylmethyl}-4-methylsulfanylmethyl-1-propyl-4,5-dihydro-1H-imidazole-4-carboxylic acid methyl ester], on human μ-opiate receptor, the inhibition at 1 µM is 74%. As for `CCCN1C=NC(CSCc2ccccc2)(C(=O)OC)C1CC1CCC(C(c2ccc(F)cc2)N(C)C)CC1` (stereo not shown) [Example 161, 4-benzylsulfanylmethyl-5-{4-[dimethylamino-(4-fluorophenyl)-methyl]-cyclohexylmethyl}-1-propyl-4,5-dihydro-1H-imidazole-4-carboxylic acid methyl ester], the inhibition at 1 µM at human μ-opiate receptor came to 91%.

In general, melting point refers to the temperature of the solid-liquid transition. Broadly, the inhibition is the drop in the measured response relative to a control, in per cent.
